Source: PubChem BioAssay (NCI)
Several values for one entry are separate records, joined by “and”; a condition that tells them apart may be missing. Equal values may be shown once.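 48-hour exposure; five concentrations; linearly interpolated endpoints. GI50 marks 50% less growth. At the TGI there is no net growth.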

What was measured:
Experiment in all cases: NCI tumour cell line growth inhibition, 48 h
UO-31 renal = test system: UO-31 renal
EKVX NSCLC = test system: EKVX NSCLC
DMS 273 small cell lung = test system: DMS 273 small cell lung
LOX IMVI melanoma = test system: LOX IMVI melanoma
A549 NSCLC = test system: A549 NSCLC
HT29 colon = test system: HT29 colon
KM20L2 colon = test system: KM20L2 colon
M14 melanoma = test system: M14 melanoma
SNB-78 CNS = test system: SNB-78 CNS
NCI-H522 lung = test system: NCI-H522 lung
T-47D breast = test system: T-47D breast
HOP-18 NSCLC = test system: HOP-18 NSCLC

SMILES | TGI (UO-31 renal) | TGI (EKVX NSCLC) | TGI (DMS 273 small cell lung) | TGI (LOX IMVI melanoma) | TGI (A549 NSCLC) | TGI (HT29 colon) | TGI (KM20L2 colon) | TGI (M14 melanoma) | TGI (SNB-78 CNS) | TGI (NCI-H522 lung) | TGI (T-47D breast) | GI50 (UO-31 renal) | GI50 (EKVX NSCLC) | GI50 (LOX IMVI melanoma) | GI50 (T-47D breast) | GI50 (A549 NSCLC) | GI50 (HT29 colon) | GI50 (NCI-H522 lung) | GI50 (M14 melanoma) | TGI (HOP-18 NSCLC)
CCOC(=O)C(C)(C)Oc1ccc2c(-c3ccc(Cl)cc3)cc(=O)oc2c1 | > 100 µM | > 100 µM | > 100 µM | > 100 µM | > 100 µM | > 100 µM | > 100 µM | > 100 µM | – | – | – | – | – | – | – | – | – | – | – | –
CN(O)C(=O)Cc1ccccc1 | > 100 µM | – | > 100 µM | > 100 µM | > 100 µM | > 100 µM | > 100 µM | > 100 µM | > 100 µM | > 100 µM | – | – | – | – | – | – | – | – | – | –
O=[As](O)(O)c1ccc(Cc2ccc([As](=O)(O)O)cc2)cc1 | 2.63 µM | 2.88 µM | – | 1.41 µM | 3.81 µM | 2.38 µM | – | 2.46 µM | – | 1.44 µM | 1.87 µM | – | – | – | – | – | – | – | – | –
COc1ccc(/C=C(\C#N)c2cc3ccccc3n2C)cc1 | > 100 µM | > 100 µM | – | > 100 µM | > 100 µM | > 34.1 µM | – | > 100 µM | – | 5.03 µM | > 100 µM | 0.924 µM | 0.765 µM | 0.577 µM | 0.389 µM | 0.514 µM | 0.347 µM | 0.407 µM | 0.308 µM | –
CCNCC(O)c1ccc(N)c([N+](=O)[O-])c1 (stereo not given) | > 100 µM | > 100 µM | – | > 100 µM | > 100 µM | > 100 µM | – | > 100 µM | – | > 100 µM | > 100 µM | – | – | – | – | – | – | – | – | –
C[C@@H]1CC[C@@]2(OC1)O[C@H]1C[C@H]3[C@@H]4CC=C5C[C@@H](O[C@@H]6O[C@H](CO)[C@@H](O[C@@H]7O[C@@H](CO)[C@H](O)[C@H]7O)[C@H](O)[C@H]6O[C@@H]6O[C@@H](C)[C@H](O)[C@@H](O)[C@H]6O)CC[C@]5(C)[C@H]4CC[C@]3(C)[C@H]1[C@@H]2C | 2.55 µM | 3.04 µM | – | 1.19 µM | 2.04 µM | 2.46 µM | – | 2.07 µM | – | 3.23 µM | 2.73 µM | 1.28 µM | 1.62 µM | 0.332 µM | 1.39 µM | – | 1.06 µM | 1.67 µM | – | –
COc1ccc(C2S/C(=C\c3ccc(OC)cc3OC)C(=O)N2NC(=O)Cc2ccccc2)cc1 (stereo not given) | > 100 µM | – | > 100 µM | > 100 µM | > 100 µM | > 100 µM | – | > 100 µM | – | > 100 µM | – | – | – | – | – | – | – | – | – | > 100 µM
CCSC1=CC(=O)c2ccccc2C1=O | 4.06 µM | 23.2 µM | – | 8.89 µM | 41.3 µM | 34.7 µM | – | 26 µM | – | 2.39 µM | 0.959 µM | 1.28 µM | 7.82 µM | 2.55 µM | 0.318 µM | 19.9 µM | 15.5 µM | 0.821 µM | 12.8 µM | –
CC(=O)OC1CCC2(C)C(=CC(C3C=C4CC(OC(C)=O)CCC4(C)C4=C3C3CC5OC6(CCC(C)CO6)C(C)C5C3(C)CC4)C3=C2CCC2(C)C3CC3OC4(CCC(C)CO4)C(C)C32)C1 (stereo not given) | 28.9 µM | 37.1 µM | – | 30.1 µM | 26.5 µM | 27.2 µM | – | 26.9 µM | – | 19.4 µM | 42.7 µM | – | – | – | – | – | – | – | – | –
COc1cc(C2C(C#N)=C(N)OC3=C2C(=O)c2ccccc2C3=O)cc(OC)c1OC (stereo not given) | 21.3 µM | 34 µM | – | 14 µM | 29.6 µM | 41.3 µM | – | 16.1 µM | – | 16.8 µM | 20.4 µM | 2.79 µM | 12.6 µM | 0.629 µM | 3.72 µM | 1.32 µM | 3.45 µM | 0.26 µM | 0.395 µM | –
COc1ccc(/C=C\c2cc(OC)c(OC)c(OC)c2)c(NS(=O)(=O)c2ccc(C)cc2)c1O | > 65.8 µM | > 100 µM | – | > 100 µM | > 100 µM | > 45.7 µM | – | > 33.2 µM | – | > 35 µM | > 100 µM | 0.335 µM | 0.0644 µM | 0.0509 µM | 21 µM | 0.0473 µM | 0.813 µM | 0.0377 µM | 0.0307 µM | –
COC(=O)CCC1=C(C)c2cc3[n-]c(cc4nc(cc5[n-]c(cc1n2)c(CCC(=O)OC)c5C)C=C4C)cc3C.[Cd+2] | 65.7 µM | > 52.2 µM | – | > 74.6 µM | 22.9 µM | 26.3 µM | – | 22.8 µM | – | 0.754 µM | 6.95 µM | 21.7 µM | 5.89 µM | 13.1 µM | 2.47 µM | 4.24 µM | 6.74 µM | 0.265 µM | 5.54 µM | –
O=Cc1coc2ccccc2c1=O | 28.8 µM | 49.9 µM | – | 37.1 µM | 84.9 µM | 46.1 µM | – | 38.5 µM | – | 48.1 µM | > 100 µM | – | – | – | – | – | – | – | – | –
O=C1C2=C(c3ccccc31)C(c1ccccc1Cl)N1C(=O)CSC1=N2 (stereo not given) | > 100 µM | > 100 µM | > 100 µM | > 100 µM | > 100 µM | > 100 µM | > 100 µM | > 100 µM | – | 88.7 µM | – | – | – | – | – | – | – | – | – | –
CC[C@H](C)[C@H](NC(=O)C12C3C4C1C1C2C3C41NC(C)=O)C(=O)N(C)[C@H](C[C@@H](OC(C)=O)c1nc(C(=O)N[C@@H](Cc2ccccc2)C[C@H](C)C(=O)OC)cs1)C(C)C (stereo not given in full) | > 14.3 µM | > 14.3 µM | – | > 14.3 µM | > 14.3 µM | 2.47 µM | – | 2.25 µM | – | 0.513 µM | > 14.3 µM | 8.55 µM | 2.81 µM | 0.231 µM | > 14.3 µM | 2.82 µM | 0.36 µM | 0.0637 µM | 0.259 µM | –
Cc1ccc(Nc2ccc(Nc3ccc(C)cc3)c3c2C(=O)c2c(O)ccc(O)c2C3=O)cc1 | > 100 µM | > 100 µM | > 100 µM | > 100 µM | > 100 µM | – | – | > 100 µM | > 100 µM | > 100 µM | – | – | – | – | – | – | – | – | – | –
CN(C)c1ccc(/C=C/c2ccnc3ccccc23)cc1 | > 100 µM | > 100 µM and 30.2 µM | – | > 100 µM and 19.7 µM | > 100 µM | 84.3 µM and 11.8 µM | – | > 100 µM and 12.7 µM | – | > 100 µM | > 100 µM and 63.8 µM | 12.1 µM | 3.19 µM | 4.7 µM | 2.57 µM | 4.14 µM | 3.18 µM | 10.5 µM | 2.55 µM | –
